Assay results taken from the supplement of paper PMC10307832.

What was measured:
Assay in all cases: relative viability (nuclei count vs DMSO), 5 days (fraction); higher = more cells survive
Shikonin + Luminespib = compound: CC(C)=CC[C@@H](O)C1=CC(=O)c2c(O)ccc(O)c2C1=O [Shikonin] + CCNC(=O)c1noc(-c2cc(C(C)C)c(O)cc2O)c1-c1ccc(CN2CCOCC2)cc1 [Luminespib] (partner 0.01 µM)
Summary of the method: (§1)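 Lung cancer cell lines, seeded in 1536-well plates, were treated the following day by pin tool with a single drug or with five library-drug doses (not always all listed) in √10 steps on top of a fixed anchor-drug dose. Cells were fixed and nuclei stained in one step after 5 days, and nuclei were counted. Relative viability is the nuclei count for treated wells divided by that for vehicle wells, reported as medians of duplicate plates.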

Shikonin + Phenformin = compound: CC(C)=CC[C@@H](O)C1=CC(=O)c2c(O)ccc(O)c2C1=O [Shikonin] + N=C(N)NC(=N)NCCc1ccccc1 [Phenformin] (partner 250 µM)
Summary of the method: as §1

Shikonin + Decitabine = compound: CC(C)=CC[C@@H](O)C1=CC(=O)c2c(O)ccc(O)c2C1=O [Shikonin] + Nc1ncn([C@H]2C[C@H](O)[C@@H](CO)O2)c(=O)n1 [Decitabine] (partner 2 µM)
Summary of the method: as §1

[1] = compound: CC(C)N(CCCNC(=O)Nc1ccc(C(C)(C)C)cc1)C[C@H]1O[C@@H](n2ccc3c(N)ncnc32)[C@H](O)[C@@H]1O + C[C@]1(O)C[C@@H](c2nc(-c3ccc4ccc(-c5ccccc5)nc4c3)c3c(N)nccn32)C1 [Linsitinib] (partner 1 µM)
Summary of the method: as §1

Cell Line | relative viability (Shikonin + Luminespib; first compound 0.01 µM) | relative viability (Shikonin + Luminespib; first compound 0.1 µM) | relative viability (Shikonin + Luminespib; first compound 0.3162 µM) | relative viability (Shikonin + Luminespib; first compound 1 µM) | relative viability (Shikonin + Phenformin; first compound 0.01 µM) | relative viability (Shikonin + Phenformin; first compound 0.1 µM) | relative viability (Shikonin + Phenformin; first compound 0.3162 µM) | relative viability (Shikonin + Phenformin; first compound 1 µM) | relative viability (Shikonin + Decitabine; first compound 0.01 µM) | relative viability (Shikonin + Decitabine; first compound 0.1 µM) | relative viability (Shikonin + Decitabine; first compound 0.3162 µM) | relative viability (Shikonin + Decitabine; first compound 1 µM) | relative viability ([1]; first compound 0.08 µM) | relative viability ([1]; first compound 0.253 µM) | relative viability ([1]; first compound 0.8 µM) | relative viability ([1]; first compound 2.53 µM) | relative viability ([1]; first compound 8 µM)
NCI-H1944 | 0.704 | 0.613 | 0.889 | 0.8 | 0.198 | 0.189 | 0.209 | 0.205 | 0.464 | 0.446 | 0.443 | 0.435 | 1.09 | 1.15 | 1.17 | 1.22 | 1.16
LU99A | 0.165 | 0.242 | 0.268 | 0.177 | 0.859 | 1.15 | 0.758 | 0.791 | 0.744 | 1.05 | 0.978 | 0.852 | 0.516 | 0.405 | 0.521 | 0.582 | 0.563
NCI-H1993 | 1.08 | 0.834 | 0.834 | 0.531 | 0.504 | 0.579 | 0.555 | 0.499 | 0.668 | 0.592 | 0.632 | 0.555 | 0.806 | 0.761 | 0.738 | 0.752 | 0.654
NCI-H2405 | 0.698 | 0.745 | 0.665 | 0.644 | 0.391 | 0.398 | 0.427 | 0.396 | 0.827 | 0.889 | 0.762 | 0.702 | 0.901 |  | 0.919 | 0.966 | 0.945
NCI-H2023 | 0.969 | 0.851 | 0.982 | 0.59 | 0.352 | 0.386 | 0.452 | 0.341 | 0.201 | 0.251 | 0.236 | 0.225 | 0.661 | 0.734 | 0.72 | 0.709 | 0.652
HCC-15 | 0.358 | 0.888 | 0.242 | 0.402 | 0.511 | 0.545 | 0.49 | 0.456 | 0.575 | 0.848 | 0.638 | 0.792 | 0.84 | 0.908 | 0.909 | 0.9 | 0.859
HCC-44 | 0.814 | 1.14 | 1.28 | 1.23 | 0.212 | 0.162 | 0.226 | 0.267 | 0.953 | 0.928 | 1.1 | 0.979 | 0.647 | 0.68 | 0.748 | 0.666 | 0.729
COR-L23 | 0.848 | 0.675 | 0.767 | 0.357 | 0.462 | 0.438 | 0.465 | 0.406 | 0.382 | 0.516 | 0.399 | 0.398 | 0.837 | 0.934 | 0.916 | 1.04 | 0.897
HCC-78 |  |  |  |  | 0.66 | 0.705 | 0.697 | 0.806 | 0.71 | 0.638 | 0.721 | 0.732 | 0.576 | 0.437 | 0.423 | 0.51 | 0.456
NCI-H1299 |  |  |  |  |  |  |  |  |  |  |  |  | 0.876 | 1.02 | 0.97 | 0.918 | 0.942
PC-14 | 0.115 | 0.12 | 0.135 | 0.151 | 0.587 | 0.619 | 0.597 | 0.637 | 0.216 | 0.278 | 0.413 | 0.161 | 0.962 | 0.969 | 0.979 | 0.908 | 0.857
NCI-H2126 | 1.01 | 1.05 | 0.966 | 0.891 | 0.518 | 0.571 | 0.565 | 0.513 | 0.593 | 0.589 | 0.628 | 0.559 | 0.713 | 0.674 | 0.743 | 0.749 | 0.676
NCI-H1650 | 0.195 | 0.198 | 0.175 | 0.193 | 0.443 | 0.488 | 0.335 | 0.254 | 0.379 | 0.355 | 0.424 | 0.389 |  |  |  |  | 
ChaGo-K-1 | 0.635 | 0.82 | 0.55 | 0.415 | 0.475 | 0.542 | 0.543 | 0.471 | 0.521 | 0.529 | 0.513 | 0.567 |  |  |  |  | 
SW 900 | 0.192 | 0.173 | 0.207 | 0.155 | 0.667 | 0.589 | 0.666 | 0.661 | 0.373 | 0.536 | 0.395 | 0.396 |  |  |  |  | 
NCI-H1563 | 0.575 | 0.465 | 0.542 | 0.453 | 0.662 | 0.723 | 0.643 | 0.673 |  |  |  |  | 1.16 | 1.14 | 1.32 | 1.27 | 1.18
A549 |  |  |  |  | 0.14 | 0.355 | 0.12 | 0.122 | 0.223 | 0.281 | 0.239 | 0.193 | 0.561 | 0.554 | 0.525 | 0.679 | 0.635
NCI-H2342 | 0.763 | 0.65 | 0.752 | 0.702 | 0.679 | 0.538 | 0.653 | 0.587 | 0.723 | 0.72 | 0.74 | 0.748 |  |  |  |  | 
NCI-H2170 | 0.8 | 0.703 | 0.632 | 0.562 | 0.399 | 0.445 | 0.449 | 0.431 | 0.481 | 0.449 | 0.496 | 0.503 |  |  |  |  | 
NCI-H1623 | 0.513 | 0.552 | 0.609 | 0.368 | 0.551 | 0.601 | 0.592 | 0.603 |  |  |  |  |  |  |  |  | 
NCI-H522 | 1.09 | 0.917 | 1.29 | 1.31 | 0.663 | 0.713 | 0.601 | 0.623 | 0.62 | 0.763 | 0.644 | 0.553 |  |  |  |  | 
IA-LM |  |  |  |  |  |  |  |  |  |  |  |  | 0.318 | 0.559 | 0.413 | 0.443 | 0.432
CAL-12T | 0.473 | 0.415 | 0.257 | 0.42 | 0.612 | 0.542 | 0.464 | 0.55 |  |  |  |  | 0.788 | 0.772 | 0.809 | 0.89 | 0.739
EBC-1 |  |  |  |  |  |  |  |  |  |  |  |  | 0.656 | 0.74 | 0.598 | 0.885 | 0.727
